Experimental data: patent US5962502A, “Polyamidic acid derivatives with antigastrin activity, a method for their preparation, and their pharmaceutical use” (priority 1993, dated 1999)
pIC50: −log10 of the molar value. “And” between values parts separate entries of the source, which are not always exact repeats. Equal values may be shown once.

How the values were obtained:
[1] = target: T1, gastrin receptors or type-B cholecystokinin (CCK-B) receptors (Oryctolagus cuniculus, UniProt P46627); assay: Inhibition of the gastrin-induced increase of cytosolic calcium in rabbit gastric mucous-membrane cells (Fura 2); type: cell-based; conditions: for Ratio IC50 Binding cortex / IC50 (gastric mucous cells): binding values taken from Table 3; for CCK-B-antagonistic activity IC50 (II): data taken from Table 4 (rabbit gastric mucous cells), reprinted in Table 6; for IC50, inhibition of the increase of cytosolic calcium: rabbit gastric mucous cells enriched in parietal cells, gastrin 5×10^-8; for IC50 order of magnitude, peripheral antigastrin activity: rabbit gastric mucous cells
T1 construct: Rabbit gastric mucous-membrane cells were prepared by conventional techniques; endogenous in cells; host or cells: freshly isolated rabbit gastric mucosal cells, enriched by elutriation to about 70% parietal cells
T1 sequence (P46627 1-452): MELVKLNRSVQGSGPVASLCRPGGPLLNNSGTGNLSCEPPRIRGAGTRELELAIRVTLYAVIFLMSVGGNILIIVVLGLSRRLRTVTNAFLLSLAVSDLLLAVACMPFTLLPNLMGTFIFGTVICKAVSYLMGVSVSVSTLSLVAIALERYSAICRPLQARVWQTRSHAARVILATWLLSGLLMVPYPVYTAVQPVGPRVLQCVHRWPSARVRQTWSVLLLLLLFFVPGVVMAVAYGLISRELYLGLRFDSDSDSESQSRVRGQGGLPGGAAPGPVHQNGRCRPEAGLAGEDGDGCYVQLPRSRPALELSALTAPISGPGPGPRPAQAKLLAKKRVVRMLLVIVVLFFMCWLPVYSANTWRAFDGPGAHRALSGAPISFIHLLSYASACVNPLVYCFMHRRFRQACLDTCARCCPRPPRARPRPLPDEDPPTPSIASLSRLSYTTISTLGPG
Source text: The parietal cells of the gastric mucous membrane are responsible for the secretion of HCl. They have specific membrane receptors which can be activated by gastrin and which have been defined as gastrin receptors or type-B cholecystokinin (CCK-B) receptors. Since it has been observed that the activation of the CCK-B receptors by gastrin leads to an increase in the cytosolic levels of calcium ions, a technique involving the measurement of the increase in intracellular calcium induced by gastrin in the presence and in the absence of the compounds of the invention was used as an index of the antigastrin activity of the compounds. Rabbit gastric mucous-membrane cells were prepared by conventional techniques with the use of collagenase and pronase as digestive enzymes. The cellular preparation obtained by the enzymatic digestion was composed of parietal cells, zymogen cells and mucous-membrane cells. […] The cells were then washed and resuspended in a saline solution buffered with HEPES containing, in mM: […] Each measurement was carried out on cells in suspension (0.8×10^6 /ml) at a thermostatically-controlled temperature of 37° C. and with constant magnetic stirring. The fluorescence was recorded with the use of a spectrofluorometer. The operative wavelengths were 340/380 nm for excitation and 505 nm for emission. […] Biol. Chem. 260 (1985), 3440]. […] The results thus obtained for some compounds of the invention are given in Table 4, which also gives an index derived from the ratio between the peripheral antigastrin activity just described and the displacement activity found in the test on binding to the guinea-pig cortex receptors described above.

central CCK-B receptor = target: T2, central CCK-B receptor (Cavia porcellus, UniProt H0VZC5); assay: Inhibition of the binding of [3-H][N-methyl-N-leucine]CCK-8 to guinea-pig cortical membranes; conditions: for pIC50 / inhibition of the binding of [N-methyl-N-leucine]CCK-8, result in words: guinea-pig cortical membranes; for pIC50: 150 minutes at 25° C.
T2 construct: Cerebral cortices of male white guinea-pigs were thus used; from tissue; host or cells: cerebral cortex membranes of male white guinea-pigs
T2 sequence (H0VZC5 1-426): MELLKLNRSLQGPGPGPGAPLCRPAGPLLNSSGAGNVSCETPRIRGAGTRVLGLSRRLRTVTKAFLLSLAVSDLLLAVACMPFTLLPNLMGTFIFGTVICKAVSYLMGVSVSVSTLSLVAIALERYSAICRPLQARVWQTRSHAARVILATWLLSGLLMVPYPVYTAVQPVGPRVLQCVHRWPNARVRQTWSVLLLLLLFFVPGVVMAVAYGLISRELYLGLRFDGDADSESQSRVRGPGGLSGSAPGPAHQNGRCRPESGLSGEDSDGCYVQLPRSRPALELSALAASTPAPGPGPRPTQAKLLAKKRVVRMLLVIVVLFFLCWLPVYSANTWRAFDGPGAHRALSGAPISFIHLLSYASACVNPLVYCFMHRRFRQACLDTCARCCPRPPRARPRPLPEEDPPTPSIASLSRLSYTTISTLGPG
How it was run: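 Male guinea-pig cerebral cortex membranes (about 300 mcg protein/ml) incubated with non-sulphated [3-H]-labelled CCK-8 tracer and compound 150 minutes at 25° C. Pellet radioactivity counted by liquid scintillation; nonspecific binding defined with 5.10^-6 M CCK-8.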

[2] = tested on: acid secretion induced by pentagastrin; assay: Acid secretion induced by pentagastrin in the anaesthetized rat; type: in vivo; conditions: for ED50: iv, 1 h, I.V. bolus, pentagastrin 30 mcg/kg/h, read-out: Activity (ID50), inhibition of the acid secretion induced by pentagastrin
Description: The activity of the compounds of the invention against gastric secretion performed by means of a mechanism with an antigastrin effect, was examined in vivo in anaesthetized rats with the use of male animals weighing about 200 g. Gastric secretion was stimulated with pentagastrin and Lai's method [Gut 5, (1964), 327-341 ] was used, with slight modification.
After tracheotomy, the oesophagus and duodenum were cannulated. A tepid solution (37° C.) of 0.25 mM NaOH was perfused and was passed through the stomach by means of a peristaltic pump at a constant flow-rate of 1 ml/minute. After stabilization for 20 minutes, the stimulant, dissolved in a physiological solution, was perfused for 120 minutes at a dose of 30 mcg/kg/h, in a volume of 0.95 ml/hour. After perfusion for 60 minutes (the basal stimulation), the product under test was administered intravenously (I.V.) as a bolus and perfusion of the stimulant was continued for a further 60 minutes. The acid secretion was recorded continuously as a function of time.
The activity of the product was evaluated as the percentage reduction of secreted acidity after the administration of the product, in comparison with the basal acidity measured during the first 60 minutes of collection in the presence of pentagastrin alone.
The antagonistic compounds tested were administered in various doses so that an ID50, that is, the dose (in mg/kg I.V.) which could inhibit the effect of pentagastrin by 50%, could be calculated.

CCK-A = target: T3, CCK-A (Cavia porcellus, UniProt Q63931); assay: Anti-CCK-A activity on guinea-pig gall bladder stimulated in vitro by CCK-8; conditions: for Ratio I/II (CCK-A IC50 / CCK-B IC50): gall bladder IC50 over gastric mucous cells IC50; for pIC50: guinea-pig gall bladder in vitro, CCK-8 10 ng/ml, read-out: CCK-A-antagonistic activity IC50 (I)
T3 construct: A longitudinal strip of guinea-pig gall-bladder was put in a bath for isolated organs; from tissue; host or cells: guinea-pig gall bladder longitudinal strip
T3 sequence (Q63931 1-430): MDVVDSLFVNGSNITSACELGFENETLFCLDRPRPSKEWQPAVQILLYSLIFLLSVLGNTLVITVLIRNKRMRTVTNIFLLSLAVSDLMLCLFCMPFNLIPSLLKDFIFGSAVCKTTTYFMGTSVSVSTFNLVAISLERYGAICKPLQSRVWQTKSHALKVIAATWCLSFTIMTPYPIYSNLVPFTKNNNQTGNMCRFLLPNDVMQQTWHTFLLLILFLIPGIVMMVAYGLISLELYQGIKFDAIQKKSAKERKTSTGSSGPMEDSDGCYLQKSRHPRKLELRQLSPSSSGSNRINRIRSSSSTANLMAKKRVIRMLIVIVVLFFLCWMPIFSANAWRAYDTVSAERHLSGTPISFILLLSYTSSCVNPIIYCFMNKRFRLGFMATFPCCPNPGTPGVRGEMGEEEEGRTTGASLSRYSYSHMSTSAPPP
Description: The experimental model used was guinea-pig gall bladder stimulated in vitro by CCK-8, with the use of lorglumide as the reference standard. A longitudinal strip of guinea-pig gall-bladder was put in a bath for isolated organs in the presence of Krebs buffer at a temperature of 32° C., with continuous oxygenation with an oxygen-CO2 mixture (95-[…]). The isometric contractions were detected by means of a force transducer and recorded.

CCK-B receptors = conditions: guinea-pig; Knapp et al; cited from earlier work

Row | Ratio IC50 Binding cortex / IC50 (gastric mucous cells) [1] | CCK-B-antagonistic activity IC50 (II) [1] | IC50, inhibition of the increase of cytosolic calcium [1] | pIC50 (central CCK-B receptor) | Ratio I/II (CCK-A IC50 / CCK-B IC50) (CCK-A) | pIC50 (CCK-A) | IC50 order of magnitude, peripheral antigastrin activity [1] | inhibition of the binding of [N-methyl-N-leucine]CCK-8, result in words (central CCK-B receptor) | times more active than the corresponding diastereoisomer at the carbon atom (**) (central CCK-B receptor; binding, guinea-pig cortex) | Molecule | ED50 [2] | antigastrin activity relative to the diastereoisomer at the carbon atom (**) ([2]; pentagastrin-induced acid secretion) | affinity for the receptors of the cortex (CCK-B) relative to those of the pancreas (CCK-A) (CCK-B receptors)
1 | 7.3 | 30 nM | 30 nM | 6.66 | 1397 | 4.38 |  |  |  | O=C(CC[C@@H](NC(=O)c1cc(Cl)cc(Cl)c1)C(=O)N1CCC2(CCCC2)CC1)N[C@@H](Cc1c[nH]c2ccccc12)C(=O)O [Compound 20] | 10.9 mg/kg and 17.4 µmol/kg | almost the same antigastrin activity | 
2 | 15.0 |  | 30 nM | 6.35 | 160.0 | 5.32 |  |  |  | O=C(CC[C@@H](NC(=O)c1cc(Cl)cc(Cl)c1)C(=O)N1CCC2(CCCC2)CC1)Nc1ccccc1C(=O)O [Compound 50] | 12 mg/kg and 21.4 µmol/kg |  | 
3 | 10.0 | 7 nM | 7 nM | 7.15 | 1214 | 5.07 | nanomolar order of magnitude | potent inhibitors |  | O=C(CC[C@@H](NC(=O)c1cc(Cl)cc(Cl)c1)C(=O)N1CCC2(CCCC2)CC1)N[C@H](Cc1cccc2ccccc12)C(=O)O [Compound 25] | 7.1 mg/kg and 11.1 µmol/kg |  | 
4 |  |  |  |  |  |  |  |  |  | non-sulphated [3-H] [N-methyl-N-leucine]CCK-8 |  |  | approximately 4000 times
5 | 7.3 | 30 nM | 30 nM | 6.66 | 160 | 5.32 |  |  | 1.5 times | O=C(O)C[C@@H](Cc1ccccc1)NC(=O)CC[C@@H](NC(=O)c1cc(Cl)cc(Cl)c1)C(=O)N1CCC2(CCCC2)CC1 [Compound 15] | 13.5 mg/kg and 22.4 µmol/kg |  | 
6 | 12.5 | 8 nM | 8 nM | 7.00 | 1837 | 4.83 | nanomolar order of magnitude | potent inhibitors |  | O=C(CC[C@@H](NC(=O)c1cc(Cl)cc(Cl)c1)C(=O)N1CCC2(CCCCC2)CC1)N[C@H](Cc1c[nH]c2ccccc12)C(=O)O [Compound 30] | 15.2 mg/kg and 23.7 µmol/kg |  | 
7 | 3.7 | 200 nM | 200 nM | 6.14 | 179 | 4.45 |  |  |  | O=C(CC[C@@H](NC(=O)c1cc(Cl)cc(Cl)c1)C(=O)N1CCC2(CCCC2)CC1)N[C@@H](Cc1ccccc1)C(=O)O [Compound 10] | 28.4 mg/kg and 48.3 µmol/kg |  | 
